Measured values taken from ChEMBL document CHEMBL1201862, “PubChem BioAssay data set” (2004).
Activity calls are given as the source filed them.

Legend:
[1] = Luminescence Cell-Based Dose Response HTS to Identify Activators of Luciferase Translation or Activity in H4 […] Cells. [Related pubchem assays: 1829 (Project Summary), 1814 (Primary HTS)]; type: functional
[2] = Luminescence Cell-Based Dose Response to Identify Activators of Luciferase Translation or Activity in H4-C Neuroglioblastoma Cells. [Related pubchem assays: 1829 (Project Summary), 1814 (Primary HTS)]; type: functional
[3] = system: H4; assay: Luminescence Cell-Based Dose Response HTS to Identify Activators of 5'UTR Stem-Loop Driven Prion Protein mRNA Translation in H4 Neuroglioblastoma Cells. [Related pubchem assays: 1829 (Project Summary), 1814 (Primary HTS)]; type: functional; details: Homo sapiens
[4] = Luminescence Cell-Based Dose Response to Identify Activators of 5'UTR Stem-Loop Driven Prion Protein mRNA Translation in H4-C Neuroglioblastoma Cells. [Related pubchem assays: 1829 (Project Summary), 1814 (Primary HTS)]; type: functional
[5] = Luminescence Cell-Based Dose Confirmation to Identify Activators of 5'UTR Stem-Loop Driven Alpha-Synuclein mRNA Translation in H4 Neuroglioblastoma Cells. [Related pubchem assays: 1829 (Project Summary), 1814 (Primary HTS)]; type: functional
[6] = target: T1, Bcl-2-related protein A1 (Mus musculus, UniProt Q07440); assay: Bfl-1 binding inhibitors, SAR follow-up, biochemical, fluorescence polarization (AID 1070)
T1 sequence (Q07440 whole entry): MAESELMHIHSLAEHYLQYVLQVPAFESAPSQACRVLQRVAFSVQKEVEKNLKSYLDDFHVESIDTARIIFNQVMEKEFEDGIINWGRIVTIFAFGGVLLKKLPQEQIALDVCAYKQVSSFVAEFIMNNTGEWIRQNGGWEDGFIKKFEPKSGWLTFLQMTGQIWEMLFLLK

[7] = target: T1, Bcl-2-related protein A1; assay: small-molecule antagonists of Bfl-1/BH3 interaction – biochemical, TR-FRET, mouse Bfl-1, confirmation (AID 621);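 also: TR-FRET binding of GST-Bfl-1 to FITC-labelled Bid peptide via terbium antibody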
[8] = target: Glyceraldehyde-3-phosphate dehydrogenase (Homo sapiens, UniProt P04406)
[9] = target: Sphingosine 1-phosphate receptor 2 (Homo sapiens, UniProt O95136); assay: Dose Response Cell Based Assay for Agonists of the S1P2 Receptor of Purchased Analogues. [Related pubchem assays: 729, 843, 854, 736 ]; type: functional
[10] = target: Voltage-gated inwardly rectifying potassium channel KCNH2 (Homo sapiens, UniProt Q12809); assay: concentration-dependent hERG rescue from blockers – cell-based, thallium flux, dose response (AID 2121); type: ADME
[11] = system: Danio rerio; assay: In Vivo Angiogenesis Dose-Response Confirmation. [Related pubchem assays: 732 (Assay preceding this confirmatory assay.)]; type: functional, organism-based
[12] = target: T2, Tyrosine-protein phosphatase non-receptor type 7 (Homo sapiens, UniProt P35236); assay: HePTP tyrosine phosphatase activity blockers – biochemical, absorbance, leukemia target, primary screen (AID 521); type: functional
T2 sequence (P35236 whole entry): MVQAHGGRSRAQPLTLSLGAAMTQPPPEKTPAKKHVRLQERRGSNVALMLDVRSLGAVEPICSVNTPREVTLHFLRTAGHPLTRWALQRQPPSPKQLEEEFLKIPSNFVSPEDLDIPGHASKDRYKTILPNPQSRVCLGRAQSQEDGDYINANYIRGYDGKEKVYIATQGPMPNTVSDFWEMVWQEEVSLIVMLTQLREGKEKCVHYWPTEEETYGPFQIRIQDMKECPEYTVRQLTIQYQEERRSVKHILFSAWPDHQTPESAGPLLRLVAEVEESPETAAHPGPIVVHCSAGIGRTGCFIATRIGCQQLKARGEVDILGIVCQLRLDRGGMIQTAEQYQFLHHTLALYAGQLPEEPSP

Voltage-gated inwardly rectifying potassium channel KCNH2, sequence (Q12809 whole entry): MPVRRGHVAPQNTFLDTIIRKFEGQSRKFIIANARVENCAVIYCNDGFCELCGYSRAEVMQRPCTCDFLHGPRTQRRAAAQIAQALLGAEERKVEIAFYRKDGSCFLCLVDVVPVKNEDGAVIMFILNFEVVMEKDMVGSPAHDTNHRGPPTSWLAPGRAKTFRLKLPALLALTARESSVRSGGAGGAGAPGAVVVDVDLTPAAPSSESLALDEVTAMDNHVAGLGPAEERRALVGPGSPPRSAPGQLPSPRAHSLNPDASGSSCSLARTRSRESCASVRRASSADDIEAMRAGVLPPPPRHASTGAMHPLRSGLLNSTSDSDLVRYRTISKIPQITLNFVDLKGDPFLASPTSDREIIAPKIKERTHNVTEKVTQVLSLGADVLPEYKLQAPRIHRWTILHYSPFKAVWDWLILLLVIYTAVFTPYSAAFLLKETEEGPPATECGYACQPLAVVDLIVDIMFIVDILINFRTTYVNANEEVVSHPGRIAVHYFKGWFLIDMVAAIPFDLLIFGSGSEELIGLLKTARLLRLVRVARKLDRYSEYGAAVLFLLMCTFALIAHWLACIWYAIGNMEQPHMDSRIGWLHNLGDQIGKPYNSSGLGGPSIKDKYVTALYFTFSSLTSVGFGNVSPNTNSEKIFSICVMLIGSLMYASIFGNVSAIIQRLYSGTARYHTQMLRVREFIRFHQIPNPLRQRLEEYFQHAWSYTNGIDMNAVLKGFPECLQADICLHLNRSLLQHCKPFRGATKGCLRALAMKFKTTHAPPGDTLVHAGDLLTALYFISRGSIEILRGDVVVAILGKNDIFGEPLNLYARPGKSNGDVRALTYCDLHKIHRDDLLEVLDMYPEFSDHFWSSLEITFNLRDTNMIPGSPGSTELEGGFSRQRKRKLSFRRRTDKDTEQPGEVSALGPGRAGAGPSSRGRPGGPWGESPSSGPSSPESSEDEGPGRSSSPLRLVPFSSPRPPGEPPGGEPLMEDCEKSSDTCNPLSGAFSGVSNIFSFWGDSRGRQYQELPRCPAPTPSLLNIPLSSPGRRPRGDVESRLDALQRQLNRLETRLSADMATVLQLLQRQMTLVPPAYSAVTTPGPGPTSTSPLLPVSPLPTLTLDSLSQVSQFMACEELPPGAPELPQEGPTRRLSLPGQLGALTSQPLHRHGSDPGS
Glyceraldehyde-3-phosphate dehydrogenase, sequence (P04406 whole entry): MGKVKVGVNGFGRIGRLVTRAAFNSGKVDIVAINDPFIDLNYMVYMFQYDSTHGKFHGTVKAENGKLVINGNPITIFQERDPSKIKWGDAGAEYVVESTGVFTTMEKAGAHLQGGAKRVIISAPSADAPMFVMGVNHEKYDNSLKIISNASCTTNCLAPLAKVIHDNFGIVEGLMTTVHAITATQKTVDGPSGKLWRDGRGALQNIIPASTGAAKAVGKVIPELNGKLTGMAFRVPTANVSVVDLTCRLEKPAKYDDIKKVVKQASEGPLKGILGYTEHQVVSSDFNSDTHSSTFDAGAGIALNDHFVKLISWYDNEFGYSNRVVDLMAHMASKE
Sphingosine 1-phosphate receptor 2, sequence (O95136 whole entry): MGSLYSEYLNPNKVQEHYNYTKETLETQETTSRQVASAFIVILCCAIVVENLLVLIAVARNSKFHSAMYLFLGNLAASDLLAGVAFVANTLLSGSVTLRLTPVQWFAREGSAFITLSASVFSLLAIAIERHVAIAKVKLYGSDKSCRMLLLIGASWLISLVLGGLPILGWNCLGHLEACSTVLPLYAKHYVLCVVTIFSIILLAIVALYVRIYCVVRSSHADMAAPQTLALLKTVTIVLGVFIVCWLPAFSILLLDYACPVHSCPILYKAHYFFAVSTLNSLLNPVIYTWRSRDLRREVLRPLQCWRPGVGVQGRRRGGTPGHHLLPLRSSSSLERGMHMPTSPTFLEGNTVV

Compound: Cc1ccsc1C1NC(=O)c2c(sc3c2CCCC3)N1 (configuration not stated)
- EC50 [1]: < 0.1 µM (inconclusive)
- EC50 [2]: 0.643 µM (active)
- EC50 [3]: 48.3 µM (active)
- EC50 [4]: 1.12 µM (active)
- EC50 [5]: 0.571 µM (active)

Compound: O=C1C(Cl)=C(N2CCOCC2)C(=O)N1c1ccc([N+](=O)[O-])cc1
- IC50 [6]: 1.49 µM (active)
- IC50 [7]: 2.29 µM (active)
- IC50 [8]: > 100 µM (not active)

Compound: Cc1cc(C(=O)CN2C(=O)C(=O)N(Cc3ccccc3)C2=O)c(C)n1Cc1ccc(F)cc1
- EC50 [9]: > 30 µM (not active)

Compound: CCc1ccc2nc(NC(=O)c3cc(C)on3)sc2c1
- EC50 [10]: 11.6 µM (active)

Compound: O=C1Nc2c(Cl)cc(Cl)cc2/C1=C1/Nc2ccccc2C1=O
- IC50 [11]: 4.24 µM (active)

Compound: Cc1nc2c(o1)CCc1ccccc1C2O (configuration not stated)
- IC50 [12]: > 100 µM (not active)
